The source of these data is patent US20250163059A1, “HETEROCYCLIC KINASE INHIBITORS” (Incyte Corporation, priority 2023, published 2025).

Some results are limits rather than exact numbers.

Assay [1] addresses T1, pseudo-kinase domain (JH2) of human V617F mutant JAK2 (Homo sapiens, UniProt O60674, F794H/V617F/W659A/W777A).
T1 construct: pseudo-kinase domain (JH2, amino-acids 536-812 with 3 surface mutations W659A, W777A, F794H); purchased BPS Bioscience 79498; host or cells: baculovirus expression system
Nature of the assay: JAK2 LanthaScreen JH2-V617F Binding Assay. The conditions noted are these: 50 nM Fluorescent JAK2-JH2 Tracer, 1 hour at 25° C., read-out: JH2 BIND V617F. The protocol: Example B. JAK2 LanthaScreen JH2-V617F Binding Assay
JAK2 JH2-V617F binding assay utilizes pseudo-kinase domain (JH2, amino-acids 536-812 with 3 surface mutations W659A, W777A, F794H) of human V617F mutant JAK2 expressed as C-terminal His-Avi-tagged, biotinylated protein in a baculovirus expression system (BPS Bioscience, Catalog #79498). The assay was conducted in black 384-well polystyrene plates in a final reaction volume of 20 μL. JAK2 JH2-V617F (0.26 nM) was incubated with compounds (100 nL serially diluted in DMSO) in the presence of 50 nM Fluorescent JAK2-JH2 Tracer (MedChem Express Catalog #HY-102055) and 0.25 nM Streptavidin-Tb cryptate (Cisbio Part #610SATLB) in assay buffer (50 mM Tris, pH=7.5, 10 mM MgCl2, 0.01% Brij-35, 0.1% BSA, 1 mM EGTA, 5% Glycerol and 5 mM DTT). Non-specific binding was accessed in the presence of 2 mM ATP. After incubation for 1 hour at 25° C., LanthaScreen signals were read on a PHERAstar FS plate reader (BMG LABTECH). Data was analyzed with IDBS XLfit and GraphPad Prism 5.0 software using a four parameter dose response curve to determine IC50 for each compound.

Assay [2] deals with T2, catalytic domain (JH1) of JAK2 protein (Homo sapiens, UniProt O60674).
T2 construct: phosphorylated on the tyrosine residue by catalytic domain (JH1) of JAK2 protein; purchased BPS 40450
T2 sequence (O60674 849-1124 limits assumed): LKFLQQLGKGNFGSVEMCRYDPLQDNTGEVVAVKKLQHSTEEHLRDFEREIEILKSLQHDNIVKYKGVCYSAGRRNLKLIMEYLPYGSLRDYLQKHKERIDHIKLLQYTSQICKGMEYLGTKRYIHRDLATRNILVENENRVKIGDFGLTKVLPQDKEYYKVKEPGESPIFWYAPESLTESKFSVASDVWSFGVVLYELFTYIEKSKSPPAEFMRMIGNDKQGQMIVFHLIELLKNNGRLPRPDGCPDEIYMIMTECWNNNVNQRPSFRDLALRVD
Nature of the assay: JAK2 (JH1) Enzymatic Assay at ATP=Km (30 μM), TR-FRET. Format: biochemical. Particulars: 30 μM ATP (=Km), 60 min at 25° C., read-out: V617F ENZ 30 μM. The protocol: Example A. JAK2 (JH1) Enzymatic Assay at ATP=Km (30 μM)
Inhibitor potency was determined in TR-FRET assay, which measures HTRF signal generated as a result of Eu-labeled anti-phosphotyrosine antibody binding to Biotin-labeled peptide, phosphorylated on the tyrosine residue by catalytic domain (JH1) of JAK2 protein in the presence of ATP-Mg and Allophycocyanin-streptavidin (APC-SA). JH1 domain of JAK2 protein was purchased from BPS (#40450), Eu-W1204-labeled Anti-Phosphotyrosine Antibody (PY-20) and SureLight Allophycocyanin-streptavidin were purchased from PerkinElmer (#AD0067 and #AD0201). Peptide Biot-EQEDEPEGDYFEWLEES-amide (SEQ ID NO.: 1) was purchased from Quality Controlled Biochemicals, MA (Q307-166). Assay buffer consisted of 50 mM Tris, pH=7.5, 10 mM MgCl2, 0.01% Brij-35, 0.1% BSA, 1 mM EGTA, 5% Glycerol and 5 mM DTT. To assess the inhibition of the enzymatic activity, compound was serially diluted in DMSO and a volume of 0.1 μL was transferred to the wells of a black regular volume 384-well plate (Greiner #781076) using Echo Liquid Handler (Labcyte Inc.). Positive and Negative control wells contained 0.1 μL of DMSO.
Enzyme (catalytic domain JH1 of JAK2) was diluted in assay buffer, and the Multidrop Combi liquid handler (Thermo Scientific) was used to dispense 10 μL to each well (except positive control wells, to which 10 μL of assay buffer were dispensed instead of protein).
Plate was centrifuged and reaction was started by addition of 10 μL of substrate solution containing biotinylated peptide and ATP to all wells. Plate was again centrifuged and enzymatic reaction was allowed to proceed for 60 min. at 25° C. Final concentrations in the assay were as follows: 0.02 nM protein, 30 uM ATP, 0.5 uM biotinylated peptide. Reaction was stopped by addition of 10 μL of solution, containing 45 mM EDTA, 144 nM APC/225 nM Streptavidin, and 4.5 nM Eu-Ab in detection buffer: 50 mM Tris, pH=7.8, 150 mM NaCl, 0.5 mg/ml BSA.
Plate was centrifuged and incubated for 30 min. at room temperature. HTRF signal was measured on PHERAstar plate reader instrument (BMG Labtech) with excitation at 337 nm and emissions at 620 nm and 665 nm. Data analysis tools integrated in Genedata Screener software were used to analyze the results. Raw data was normalized to percent of vehicle (DMSO) Negative control, after subtracting no-enzyme Positive inhibitor control. The IC50 values were derived by fitting the data to a four parameter logistic equation producing a sigmoidal dose-response curve using the following equation: Y=Bottom+(Top−Bottom)/(1+10^((Log IC50−X)*Hill slope)) where X is the logarithm of inhibitor concentration and Y is the response.

T1 sequence (O60674 536-812 V617F/W659A/W777A/F794H): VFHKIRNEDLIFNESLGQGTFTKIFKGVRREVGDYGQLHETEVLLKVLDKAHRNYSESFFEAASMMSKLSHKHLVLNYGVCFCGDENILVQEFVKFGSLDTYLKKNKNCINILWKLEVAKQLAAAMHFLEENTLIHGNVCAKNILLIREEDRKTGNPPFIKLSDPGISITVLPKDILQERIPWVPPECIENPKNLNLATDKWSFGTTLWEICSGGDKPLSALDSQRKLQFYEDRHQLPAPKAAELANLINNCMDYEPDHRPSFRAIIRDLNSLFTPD

As for `CNc1ncc(-c2cccc(-c3cnn(C4CN(Cc5cccc(C(=O)N(C)C)n5)C4)c3)c2OC)c2cc(NC(=O)C3CC3)nnc12` [Example 11, 6-((3-(4-(3-(3-(Cyclopropanecarboxamido)-8-(methylamino)pyrido[3,4-c]pyridazin-5-yl)-2-methoxyphenyl)-1H-pyrazol-1-yl)azetidin-1-yl)methyl)-N,N-dimethylpicolinamide], the figures for the IC50 in assay [1] and in assay [2] were at most 0.01 µM and over 1 µM, respectively.

In the case of `COc1c(-c2cnn(C3CN(Cc4cccc(C(=O)N5CCOCC5)n4)C3)c2)cccc1-c1cnc(N)c2cnc(NC(=O)C3CC3)cc12` [Example 20, N-(8-amino-5-(2-methoxy-3-(1-(1-((6-(morpholine-4-carbonyl)pyridin-2-yl)methyl)azetidin-3-yl)-1H-pyrazol-4-yl)phenyl)-2,7-naphthyridin-3-yl)cyclopropane-carboxamide], the values for the IC50 in assay [1] and in assay [2] were at most 0.01 µM and 0.1 to 0.5 µM, respectively.

On to `CNc1ncc(-c2cccc(-c3cnn(C4CN(C(=O)c5cccc(C(=O)N(C)C)n5)C4)c3)c2OC)c2cc(NC(=O)C3CC3)ncc12` [Example 8, 6-(3-(4-(3-(6-(Cyclopropanecarboxamido)-1-(methylamino)-2,7-naphthyridin-4-yl)-2-methoxyphenyl)-1H-pyrazol-1-yl)azetidine-1-carbonyl)-N,N-dimethylpicolinamide], for which the IC50 in assay [1] was at most 0.01 µM; in assay [2], over 1 µM.

With `CNc1ncc(-c2cccc(-c3cnn(C4CN(Cc5cccc(C(=O)N(C)CC(F)(F)F)n5)C4)c3)c2OC)c2cc(NC(=O)C3CC3)ncc12` [Example 3, 6-((3-(4-(3-(6-(Cyclopropane-carboxamido)-1-(methylamino)-2,7-naphthyridin-4-yl)-2-methoxyphenyl)-1H-pyrazol-1-yl)azetidin-1-yl)methyl)-N-methyl-N-(2,2,2-trifluoroethyl) picolinamide], the IC50 in assay [1] was at most 0.01 µM; in assay [2], over 1 µM.

With `COC(=O)c1cccc(CN2CC(n3cc(-c4cccc(-c5cnc(NC(C)=O)c6cnc(NC(=O)C7CC7)cc56)c4OC)cn3)C2)n1` [Example 22, Methyl 6-((3-(4-(3-(1-acetamido-6-(cyclopropanecarboxamido)-2,7-naphthyridin-4-yl)-2-methoxyphenyl)-1H-pyrazol-1-yl)azetidin-1-yl)methyl)picolinate], the IC50 is at most 0.01 µM in assay [1] and over 1 µM in assay [2].

For the molecule `CNc1ncc(-c2cccc(-c3cnn(C4CN(Cc5cccc(C(=O)N(C)CC(F)(F)F)n5)C4)c3)c2OC)c2cc(NC(=O)C3CC3)nnc12` [Example 14, 6-((3-(4-(3-(3-(Cyclopropane-carboxamido)-8-(methylamino)pyrido[3,4-c]pyridazin-5-yl)-2-methoxy-phenyl)-1H-pyrazol-1-yl)azetidin-1-yl)methyl)-N-methyl-N-(2,2,2-trifluoroethyl) picolinamide], the IC50 is at most 0.01 µM in assay [1] and over 1 µM in assay [2].

For `CNc1ncc(-c2cccc(-c3cnn(C4CN(Cc5cccc(S(C)(=O)=O)n5)C4)c3)c2OC)c2cc(NC(=O)C3CC3)ncc12` [Example 6, N-(5-(2-Methoxy-3-(1-(1-((6-(methylsulfonyl)pyridin-2-yl)methyl)azetidin-3-yl)-1H-pyrazol-4-yl)phenyl)-8-(methylamino)-2,7-naphthyridin-3 yl)cyclopropane carboxamide], the values for the IC50 in assay [1] and in assay [2] were at most 0.01 µM and over 1 µM, respectively.

Regarding `COc1c(-c2cnn(C3CN(Cc4ccccn4)C3)c2)cccc1-c1cnc(N)c2cnc(NC(=O)C3CC3)cc12` [Example 21, N-(8-Amino-5-(2-methoxy-3-(1-(1-(pyridin-2-ylmethyl)azetidin-3-yl)-1H-pyrazol-4-yl)phenyl)-2,7-naphthyridin-3-yl)cyclopropanecarboxamide], the IC50 in assay [1] is at most 0.01 µM; in assay [2], 0.1 to 0.5 µM.

`CNc1ncc(-c2cccc(-c3ccc(C(=O)N(C)Cc4ccccn4)nc3)c2OC)c2cc(NC(=O)C3CC3)ncc12` [Example 23, 5-(3-(6-(Cyclopropanecarboxamido)-1-(methylamino)-2,7-naphthyridin-4-yl)-2-methoxyphenyl)-N-methyl-N-(pyridin-2-ylmethyl)picolinamide]: the figures for the IC50 in assay [1] and in assay [2] were 0.01 to 0.1 µM and over 1 µM, respectively.

With `COc1c(-c2cnn(C3CN(Cc4cccc(C(=O)N(C)CC(F)(F)F)n4)C3)c2)cccc1-c1cnc(N)c2cnc(NC(=O)C3CC3)cc12` [Example 17, 6-((3-(4-(3-(1-Amino-6-(cyclopropane-carboxamido)-2,7-naphthyridin-4-yl)-2-methoxyphenyl)-1H-pyrazol-1-yl)azetidin-1-yl)methyl)-N-methyl-N-(2,2,2-trifluoroethyl) picolinamide], the IC50 in assay [1] is at most 0.01 µM; in assay [2] it was 0.01 to 0.1 µM.
